From ChEMBL document CHEMBL5370596, “Wulfenioidins D-N, Structurally Diverse Diterpenoids with Anti-Zika Virus Activity Isolated from Orthosiphon wulfenioides” (J Nat Prod, 2023)
Active and inactive are the calls of the source. The calls are words filed in the database; no cut-off is given here.

Tests used:
[1] = system: Vero; assay: (§1) Cytotoxicity against African green monkey Vero cells assessed as reduction in cell viability after 72 hrs by CCK-8 assay; type: toxicity, cell-based; conditions: chlorocebus sabaeus, vero, 72 h
[2] = system: Zika virus; assay: Antiviral activity against ZIKV infected in African green monkey Vero cells assessed as inhibition of viral E protein expression incubated for 72 hrs by Western blot analysis; type: functional, organism-based; conditions: dose 5-20 µM
[3] = as §1; type: toxicity, cell-based; conditions: chlorocebus sabaeus, Vero cells
[4] = system: Zika virus; assay: Antiviral activity against ZIKV infected in African green monkey Vero cells assessed as inhibition of viral replication at 50 uM incubated for 72 hrs by qRT-PCR analysis; type: functional, organism-based
[5] = system: Zika virus; assay: Antiviral activity against ZIKV infected in African green monkey Vero cells assessed as inhibition of viral replication incubated for 72 hrs by qRT-PCR analysis; type: functional, organism-based
[6] = system: Zika virus; assay: Antiviral activity against ZIKV infected in African green monkey Vero cells assessed as inhibition of viral E protein expression at 20 uM incubated for 72 hrs by immunofluorescence analysis; type: functional, organism-based

| EC50 [5] [µM] | Compound | Activity [1] | inhibition [2] | CC50 at 72 h [3] [µM] | inhibition [4] | inhibition [6] |
| --- | --- | --- | --- | --- | --- | --- |
|  | CCc1nc2c(C(C)C)cc3c(c2o1)[C@@]1(C)CCCC(C)(C)[C@@H]1CC3 | Toxic |  |  |  |  |
|  | CC1=C2CCCC(C)(C)[C@@H]2CC[C@@]12C=C(C(C)C)C(=O)O2 | Toxic |  |  |  |  |
| 8 | COC(C)(C)C1=Cc2ccc(C)c3c2[C@@](O)(C1=O)C(C)(C)CCC3 |  | Dose-Dependent Effect | > 100 | Active | Active |
| 8.07 | CO[C@@H]1CCC(C)(C)Oc2c(O)c(C(C)C)cc3ccc(C)c1c23 |  | Dose-Dependent Effect | > 100 | Active | Active |
|  | Cc1nc2c(C(C)C)cc3c(c2o1)[C@@]1(C)CCCC(C)(C)[C@@H]1C=C3 | Toxic |  |  |  |  |
|  | CC(C)c1cc2c(c3ocnc13)[C@@]1(C)CCCC(C)(C)[C@@H]1CC2 | Toxic |  |  |  |  |
